From patent US12428430B2 (BRISTOL-MYERS SQUIBB COMPANY, priority 2018, dated 2025)

target: hLPA1 (Homo sapiens, UniProt Q92633); assay: LPA1 functional antagonist assay (LPA-induced calcium flux in CHO cells overexpressing human LPA1); type: cell-based; set-up: expressed in transfected cells; host or cells: Chinese hamster ovary (CHO) cells; settings: antagonist mode, inhibition of calcium flux induced by 10 nM LPA, read-out: hLPA1 IC50
Description: The effectiveness of compounds of the present invention as LPA1 inhibitors can be determined in an LPA1 functional antagonist assay as follows:
Chinese hamster ovary cells overexpressing human LPA1 were plated overnight (15,000 cells/well) in poly-D-lysine coated 384-well microplates (Greiner bio-one, Cat #781946) in DMEM/F12 medium (Gibco, Cat #11039). Following overnight culture, cells were loaded with calcium indicator dye (AAT Bioquest Inc, Cat #34601) for 30 minutes at 37° C. The cells were then equilibrated to room temperature for 30 minutes before the assay. Test compounds solubilized in DMSO were transferred to 384 well non-binding surface plates (Corning, Cat #3575) using the Labcyte Echo acoustic dispense and diluted with assay buffer [1×HBSS with calcium/magnesium (Gibco Cat #14025-092), 20 mM HEPES (Gibco Cat #15630-080) and 0.1% fatty acid free BSA (Sigma Cat #A9205)] to a final concentration of 0.5% DMSO. Diluted compounds were added to the cells by FDSS6000 (Hamamatsu) at final concentrations ranging from 0.08 nM to 5 μM. and were then incubated for 20 min at room temperature at which time LPA (Avanti Polar Lipids Cat #857130C) was added at final concentrations of 10 nM to stimulate the cells. The compound IC50 value was defined as the concentration of test compound which inhibited 50% of the calcium flux induced by LPA alone. IC50 values were determined by fitting data to a 4-parameter logistic equation (GraphPad Prism, San Diego Calif.).

Sequence of hLPA1 (Q92633 whole entry): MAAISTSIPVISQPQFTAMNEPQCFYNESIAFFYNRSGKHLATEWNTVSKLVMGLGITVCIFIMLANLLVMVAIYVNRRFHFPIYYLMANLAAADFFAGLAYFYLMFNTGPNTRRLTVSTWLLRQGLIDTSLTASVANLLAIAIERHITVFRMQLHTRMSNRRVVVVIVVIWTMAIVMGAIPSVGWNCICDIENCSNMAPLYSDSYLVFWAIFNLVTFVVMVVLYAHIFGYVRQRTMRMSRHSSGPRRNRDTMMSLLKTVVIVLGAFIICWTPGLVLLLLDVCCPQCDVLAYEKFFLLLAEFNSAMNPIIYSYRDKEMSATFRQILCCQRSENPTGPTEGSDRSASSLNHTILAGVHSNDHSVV

IC50	Compound
537 nM	Cc1cc(C23CCC(CC(=O)O)(CC2)OC3)ccc1-c1cnn(C)c1NC(=O)O[C@H](C)c1ccccc1Cl [Example 33, 2-(4-(4-(5-((((R)-1-(2-chlorophenyl)ethoxy)carbonyl)amino)-1-methyl-1H-pyrazol-4-yl)-3-methylphenyl)-2-oxabicyclo[2.2.2]octan-1-yl)acetic acid]
354 nM	Cc1noc(-c2ccc(C34CCC(CC(=O)O)(CC3)CO4)cc2)c1NC(=O)O[C@H](C)c1ccccc1Cl [Example 48, 2-(1-(4-(4-((((R)-1-(2-chlorophenyl)ethoxy)carbonyl)amino)-3-methyl-isoxazol-5-yl)phenyl)-2-oxabicyclo[2.2.2]octan-4-yl)acetic acid]
271 nM	CC(C)CCN(C)C(=O)OCc1c(-c2ccc(C34CCC(CC(=O)O)(CC3)OC4)c(F)c2)cnn1C [Example 43, 2-(4-(2-fluoro-4-(5-(((isopentyl(methyl)carbamoyl)oxy)methyl)-1-methyl-1H-pyrazol-4-yl)phenyl)-2-oxabicyclo[2.2.2]octan-1-yl)acetic acid]
88 nM	Cc1noc(C23CCC(c4ccc(CC(=O)O)cc4)(CC2)OC3)c1NC(=O)O[C@H](C)c1ccccc1 [Example 54, (R)-2-(4-(4-(3-methyl-4-(((1-phenylethoxy)carbonyl)amino)isoxazol-5-yl)-2-oxabicyclo[2.2.2]octan-1-yl)phenyl)acetic acid]
264 nM	C[C@@H](OC(=O)Nc1c(-c2ccc(C34CCC(CCC(=O)O)(CC3)OC4)cc2)nnn1C)c1ccccc1 [Example 7, 3-(4-(4-(1-methyl-5-((((R)-1-phenylethoxy)carbonyl)amino)-1H-1,2,3-triazol-4-yl)phenyl)-2-oxabicyclo[2.2.2]octan-1-yl)propanoic acid]
222 nM	Cc1noc(-c2ccc(C34CCC(CC(=O)O)(CC3)CO4)c(F)c2)c1NC(=O)O[C@H](C)C1CC1 [Example 51, 2-(1-(4-(4-((((R)-1-cyclopropylethoxy)carbonyl)amino)-3-methylisoxazol-5-yl)-2-fluorophenyl)-2-oxabicyclo[2.2.2]octan-4-yl)acetic acid]
117 nM	Cc1noc(-c2ccc(C34CCC(CC(=O)O)(CC3)OC4)cc2)c1NC(=O)OC(C)c1ccc(Cl)cc1 (racemic) [Example 14]
57 nM	Cc1noc(-c2ccc(C34CCC(CC(=O)O)(CC3)CO4)c(F)c2)c1NC(=O)O[C@H](C)c1ccccc1 [Example 50, 2-(1-(2-fluoro-4-(3-methyl-4-((((R)-1-phenylethoxy)carbonyl)amino)isoxazol-5-yl)phenyl)-2-oxabicyclo[2.2.2]octan-4-yl)acetic acid]
278 nM	C[C@@H](OC(=O)Nc1c(-c2ccc(C34CCC(C(=O)O)(CC3)OC4)cc2)cnn1C)c1ccccc1 [Example 9, (R)-4-(4-(1-methyl-5-(((1-phenylethoxy)carbonyl)amino)-1H-pyrazol-4-yl)phenyl)-2-oxabicyclo[2.2.2]octane-1-carboxylic acid]
440 nM	CC(C1CCC1)N(C)C(=O)OCc1c(-c2ccc(C34CCC(CCC(=O)O)(CC3)OC4)cc2)nnn1C (racemic) [Example 5, (±)-3-(4-(4-(5-((((1-Cyclobutylethyl)(methyl)carbamoyl)oxy)methyl)-1-methyl-1H-1,2,3-triazol-4-yl)phenyl)-2-oxabicyclo[2.2.2]octan-1-yl)propanoic acid]
345 nM	Cc1noc(-c2ccc(C34CCC(CC(=O)O)(CC3)OC4)cc2F)c1NC(=O)OC(C)c1cccc(Cl)c1 (racemic) [Example 25, (±)-2-(4-(4-(4-(((1-(3-chlorophenyl)ethoxy)carbonyl)amino)-3-methyl-isoxazol-5-yl)-3-fluorophenyl)-2-oxabicyclo[2.2.2]octan-1-yl)acetic acid]
692 nM	Cc1noc(-c2ccc(C34CCC(CC(=O)O)(CC3)OC4)c(F)c2)c1NC(=O)OC(C)c1cccc(Cl)c1 (racemic) [Example 19, (±)-2-(4-(4-(4-(((1-(3-chlorophenyl)ethoxy)carbonyl)amino)-3-methyl-isoxazol-5-yl)-2-fluorophenyl)-2-oxabicyclo[2.2.2]octan-1-yl)acetic acid]
92 nM	Cc1cc(C23CCC(CC(=O)O)(CC2)OC3)ccc1-c1onc(C)c1NC(=O)O[C@H](C)c1ccccc1C (racemic) [Example 26, (±)-2-(4-(3-methyl-4-(3-methyl-4-((((R)-1-(o-tolyl)ethoxy)carbonyl)amino)isoxazol-5-yl)phenyl)-2-oxabicyclo[2.2.2]octan-1-yl)acetic acid]
1120 nM	CC(C)CCN(C)C(=O)OCc1c(-c2ccc(C34CCC(CC(=O)O)(CC3)OC4)cc2F)cnn1C [Example 45, 2-(4-(3-fluoro-4-(5-(((isopentyl(methyl)carbamoyl)oxy)methyl)-1-methyl-1H-pyrazol-4-yl)phenyl)-2-oxabicyclo[2.2.2]octan-1-yl)acetic acid]
767 nM	CN(Cc1ccccc1)C(=O)OCc1c(-c2ccc(C34CCC(CC(=O)O)(CC3)OC4)cc2)cnn1C [Example 40, 2-(4-(4-(5-(((benzyl(methyl)carbamoyl)oxy)methyl)-1-methyl-1H-pyrazol-4-yl)phenyl)-2-oxabicyclo[2.2.2]octan-1-yl)acetic acid]
116 nM	Cc1noc(-c2ccc(C34CCC(CC(=O)O)(CC3)OC4)cc2)c1NC(=O)O[C@H](C)c1ccccc1 [Example 1, 2-(4-(4-(3-methyl-4-((((R)-1-phenylethoxy)carbonyl)amino)isoxazol-5-yl)phenyl)-2-oxabicyclo [2.2.2]octan-1-yl)acetic acid]
2790 nM	CN(CCc1ccc(Cl)cc1)C(=O)OCc1c(-c2ccc(C34CCC(CC(=O)O)(CC3)OC4)cc2)cnn1C [Example 41, 2-(4-(4-(5-((((4-chlorophenethyl)(methyl)carbamoyl)oxy)methyl)-1-methyl-1H-pyrazol-4-yl)phenyl)-2-oxabicyclo[2.2.2]octan-1-yl)acetic acid]
520 nM	CC(C)CCN(C)C(=O)OCc1c(-c2ccc(C34CCC(CC(=O)O)(CC3)OC4)cc2)cnn1C [Example 39, 2-(4-(4-(5-(((isopentyl(methyl)carbamoyl)oxy)methyl)-1-methyl-1H-pyrazol-4-yl)phenyl)-2-oxabicyclo[2.2.2]octan-1-yl)acetic acid]
95 nM	Cc1noc(-c2ccc(C34CCC(CC(=O)O)(CC3)OC4)cc2F)c1NC(=O)O[C@H](C)c1ccccc1 [Example 21, 2-(4-(3-fluoro-4-(3-methyl-4-((((R)-1-phenylethoxy)carbonyl)amino)isoxazol-5-yl)phenyl)-2-oxabicyclo[2.2.2]octan-1-yl)acetic acid]
119 nM	Cc1ccccc1[C@@H](C)OC(=O)Nc1c(C)noc1-c1ccc(C23CCC(CC(=O)O)(CC2)OC3)c(F)c1 [Example 17, 2-(4-(2-fluoro-4-(3-methyl-4-((((R)-1-(o-tolyl)ethoxy)carbonyl)amino)isoxazol-5-yl)phenyl)-2-oxabicyclo[2.2.2]octan-1-yl)acetic acid]
232 nM	CN(C(=O)OCc1c(-c2ccc(C34CCC(CC(=O)O)(CC3)OC4)c(F)c2)cnn1C)C1CCCC1 [Example 42, 2-(4-(4-(5-(((cyclopentyl(methyl)carbamoyl)oxy)methyl)-1-methyl-1H-pyrazol-4-yl)-2-fluorophenyl)-2-oxabicyclo[2.2.2]octan-1-yl)acetic acid]
418 nM	C[C@@H](OC(=O)Nc1c(-c2ccc(C34CCC(CCC(=O)O)(CC3)OC4)cc2)nnn1C)c1ccccc1Cl [Example 8, 3-(4-(4-(5-((((R)-1-(2-chlorophenyl)ethoxy)carbonyl)amino)-1-methyl-1H-1,2,3-triazol-4-yl)phenyl)-2-oxabicyclo[2.2.2]octan-1-yl)propanoic acid]
134 nM	Cc1noc(-c2ccc(C34CCC(CC(=O)O)(CC3)CO4)cc2)c1NC(=O)O[C@H](C)c1ccccc1F [Example 52, 2-(1-(4-(4-((((R)-1-(2-fluorophenyl)ethoxy)carbonyl)amino)-3-methyl-isoxazol-5-yl)phenyl)-2-oxabicyclo[2.2.2]octan-4-yl)acetic acid]
164 nM	C[C@@H](OC(=O)Nc1c(-c2ccc(C34CCC(CC(=O)O)(CC3)OC4)cc2)cnn1C)c1ccccc1Cl [Example 28, 2-(4-(4-(5-((((R)-1-(2-chlorophenyl)ethoxy)carbonyl)amino)-1-methyl-1H-pyrazol-4-yl)phenyl)-2-oxa-bicyclo[2.2.2]octan-1-yl)acetic acid]
365 nM	C[C@@H](OC(=O)Nc1c(-c2ccc(C34CCC(CC(=O)O)(CC3)OC4)c(F)c2)cnn1C)c1ccccc1 [Example 30, 2-(4-(2-fluoro-4-(1-methyl-5-((((R)-1-phenylethoxy)carbonyl)amino)-1H-pyrazol-4-yl)phenyl)-2-oxabicyclo[2.2.2]octan-1-yl)acetic acid]

Compound	IC50
2-(4-(4-(4 2-(4-(4-(4-((((cyclobutyl-methyl)carbamoyl)oxy)methyl)-3-methylisoxazol-5-yl)phenyl)-2-oxabicyclo[2.2.2]octan-1-yl)acetic acid [Example 35]	655 nM
